The target of assay [1] is T1, Estrogen receptor-alpha (ERα) (Homo sapiens, UniProt P03372).
T1 sequence (P03372 1-595): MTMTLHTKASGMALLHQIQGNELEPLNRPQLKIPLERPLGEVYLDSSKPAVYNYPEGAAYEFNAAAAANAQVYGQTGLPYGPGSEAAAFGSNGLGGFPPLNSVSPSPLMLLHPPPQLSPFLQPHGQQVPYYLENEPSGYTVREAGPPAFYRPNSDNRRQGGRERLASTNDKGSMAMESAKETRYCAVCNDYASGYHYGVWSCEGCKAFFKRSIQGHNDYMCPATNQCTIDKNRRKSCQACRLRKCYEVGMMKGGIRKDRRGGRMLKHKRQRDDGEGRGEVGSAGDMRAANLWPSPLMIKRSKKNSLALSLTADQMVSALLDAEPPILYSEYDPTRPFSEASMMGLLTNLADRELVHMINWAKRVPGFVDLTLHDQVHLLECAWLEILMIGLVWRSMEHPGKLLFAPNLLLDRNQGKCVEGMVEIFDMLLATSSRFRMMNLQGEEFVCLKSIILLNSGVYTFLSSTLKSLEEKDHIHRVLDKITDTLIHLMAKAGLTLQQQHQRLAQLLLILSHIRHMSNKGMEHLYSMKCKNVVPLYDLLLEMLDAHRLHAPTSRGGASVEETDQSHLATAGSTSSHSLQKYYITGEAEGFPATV
In words: ERα degradation in MCF-7 cells, western blot. Details: assessed for their activity in degrading ERα in MCF-7 cells via western blot; endogenous in cells; host or cells: MCF7 cells. The class given is cell-based. Particulars: 10% FBS; for Degradation of ERα in MCF7 cells (immunoblot, FIG. 2): 7 concentrations 100 nM to 0.1 nM, 48 hours. How it is done: FIG. 2 and FIG. 3 illustrate represent exemplary compounds from the western blot assay.
Estrogen receptor-alpha (ERα) degradation assay in MCF-7 cells using western blot method. The exemplary novel ERα degraders were assessed for their activity in degrading ERα in MCF-7 cells via western blot. The assay was carried out in the presence of 10% […] bovine serum (FBS) or high percentage of human or mouse serum.
MCF7 cells were grown in DMEM/F12 with 10% fetal bovine serum and seeded at 24,000 cells per well in 100 μl into 96-well clear tissue culture plates. The following day, the cells were treated with PROTACs in a 7-point concentration curve with 100 nM being the top concentration and serial dilutions to make the other concentrations (30 nM, 10 nM, 3 nM, 1 nM, and 0.3 nM). At all concentrations, 0.01% DMS is the final concentration in the well. […], washed with 50 μl of cold P1BS, The cells are lysed with 50 μl/well 4° (Cell Lysis Buffer (Catalog #9803; Cell Signaling Technology, Danvers, Mass.) (20 mM Tris-HCL (pH 7.5), 150 mM NaCl, 1 mM Na2EDTA, 1 mM EGTA, 1% Triton, 2.5 mM sodium pyrophosphate, 1 mM B-glycerophosphate, 1 mM sodium vanadate, 1 ug/ml leupeptin). Lysates were clarified at 16,000×g for 10 minutes, and 2 μg of protein was subjected to SDS-PAGE analysis and followed by immunoblotting according to standard protocols. The antibodies used were ERα (Cell Signaling Technologies Catalog #8644), and Tubulin (Sigma Catalog #T9026; St Louis, Mo.). Detection reagents were Clarity Western ECL substrate (Bio-Rad Catalog #170-5060; Hercules, Calif.).
Alternatively, MCF7 cells were grown in DMEM/F12 with 10% fetal bovine serum and seeded at 24,000 cells per well in 500 μl in 24-well clear tissue culture plates. The following day, the cells were treated with PROTACs in a 5-point concentration curve (100 nM, 33 nM, 11 nM, 3.7 nM, and 1.2 nM) in the presence of 0.01% DMSO, After 72 hours, the wells are aspirated and washed with 500 μl of PBS. The cells are lysed with 100 μl/well 4° C. […]
For orientation: Immunoblotting shows a protein as a band on a membrane.

The target of assay [2] is T1, Estrogen receptor-alpha (ERα). The experiment in a line: ERα degradation in T47D cells, western blot. The format is cell-based. Details: except that T47D cells were utilized instead of the MCF7 cells; endogenous in cells; host or cells: T47D cells. Particulars: 7 concentrations 100 nM to 0.1 nM, 10% FBS, 72 hours. The method, then:
Compounds prepared in this application were also analyzed for their ability to degrade ERα in MCF7 and T47D cells.
Estrogen receptor-alpha (ERα) degradation assay in T47D cells using western blot method. The same protocol that was described above with MCF7 cells was utilized, except that T47D cells were utilized instead of the MCF7 cells.

Consider 3 compounds from patent US11597720B2, “Tetrahydronaphthalene and tetrahydroisoquinoline derivatives as estrogen receptor degraders” (Arvinas Operations, Inc., priority 2016, dated 2023).

Structures are written as SMILES.

In the case of `O=C1CCC(N2Cc3cc(N4CCN(CC5CCN(c6ccc([C@@H]7c8ccc(O)cc8CC[C@@H]7c7ccccc7)cc6)CC5)CC4)ccc3C2=O)C(=O)N1` (stereo partly drawn) [Example 341, 3-[5-[4-[[1-[4-[(1R, 2S)-6-hydroxy-2-phenyl-tetralin-1-yl]phenyl]-4-piperidyl]methyl]piperazin-1-yl]-1-oxo-isoindolin-2-yl]piperidine-2,6-dione], in assay [1] (5 concentrations 100 nM to 1.2 nM, 72 hours), the “Degradation of ERα in MCF7 cells (immunoblot, FIG. 3)” value is on record as “Degradation of ERα”.

Consider `Cc1ncsc1-c1ccc(CNC(=O)[C@@H]2C[C@@H](O)CN2C(=O)[C@@H](NC(=O)COCCN2CCN(CCOc3ccc([C@@H]4c5ccc(O)cc5CC[C@@H]4c4ccccc4)cc3)CC2)C(C)(C)C)cc1` [Example 1, (2S,4R)-4-hydroxy-1-[(2S)-2-(2-{2-[4-(2-{4-[(1R,2S)-6-hydroxy-2-phenyl-1,2,3,4-tetrahydronaphthalen-1-yl]phenoxy}ethyl)piperazin-1-yl]ethoxy}acetamido)-3,3-dimethylbutanoyl]-N-{[4-(4-methyl-1,3-thiazol-5-yl)phenyl]methyl}pyrrolidine-2-carboxamide], for which, in assay [2], the “Degradation of ERα in T47D cells (immunoblot, FIG. 4)” value is “Degradation of ERα”. For the same compound, in assay [1], the “Degradation of ERα in MCF7 cells (immunoblot, FIG. 2)” value was “Degradation of ERα”.

For the compound `O=C1CCC(N2Cc3cc(N4CCN(CCCCCOc5ccc([C@@H]6c7ccc(O)cc7CC[C@@H]6c6ccccc6)cc5)CC4)ccc3C2=O)C(=O)N1` (stereo partly drawn) [Example 62, 3-{5-[4-(5-{4-[(1R,2S)-6-hydroxy-2-phenyl-1,2,3,4-tetrahydronaphthalen-1-yl]phenoxy}pentyl)piperazin-1-yl]-1-oxo-2,3-dihydro-1H-isoindol-2-yl}piperidine-2,6-dione], the “Degradation of ERα in T47D cells (immunoblot, FIG. 4)” value in assay [2] is listed as “Degradation of ERα”. The “Degradation of ERα in MCF7 cells (immunoblot, FIG. 2)” value in assay [1] is “Degradation of ERα”.
